According to PMC12156185, “Synthesis of Cyclic Hexapeptides via the Hydrazide Method and Evaluation of Their Antibacterial Activities” (Molecules, 2025):
In brackets after ≈: the same amount, converted by molar mass. Where a SMILES comes first, the peptide text is derived from it.

Assays:
[1] = test system: red blood cells; format: cell-based, mouse
Procedure: (§1) Based on the antimicrobial activity screening, a hemolysis assay was conducted to assess the toxicity of Cy-f1, Cy-f2, and Cy-f4 (Figure 5). For Cy-f1, the hemolysis percentage remained consistently low across all tested concentrations. At 8 μM, Cy-f1 induced approximately 0.12% hemolysis. […] For Cy-f2, the hemolysis percentage also remained consistently low across all tested concentrations. At 8 μM, Cy-f2 induced approximately 0.3% hemolysis, and Cy-f2 stayed stable at 0.3% at 16 μM and 32 μM. […] At 8 μM, it induced approximately 0.7% hemolysis, […]. However, hemolysis increased slightly with higher concentrations, reaching approximately […] and 1.1% at 16 μM and 32 μM, respectively. […] In this experiment Triton X-100 was used as a positive control with a hemolysis rate of 100%.
For the hemolytic assay, 2 mL of fresh blood was collected from a healthy mouse into an EDTA-coated tube. All procedures regarding the care and use of laboratory animals adhered to the guidelines established by the Guangxi University Ethics Committee (Approval No.: GXU-2024-063). According to the method of Tan with necessary adjustments. The blood was centrifuged and upper supernatant plasma was removed. […] After centrifugation, 200 µL of supernatant were transferred into a 96-well plate and the absorbance was recorded at 576 nm using a microplate reader. […]

[2] = test system: Acinetobacter baumannii (BNCC 337173); format: cell-based
Procedure: (§2) The antimicrobial and antifungal activities of 11 cyclic hexapeptides (Cy-f1 to Cy-f11) were evaluated by determining their minimum inhibitory concentrations (MICs) against a panel of pathogens (Figure 4). These pathogens included Gram-negative bacteria (Escherichia coli, Klebsiella pneumoniae, Pseudomonas aeruginosa), Gram-positive bacteria (Staphylococcus aureus, Bacillus subtilis, Staphylococcus aureus [MRSA], […]), and fungi (Candida tropicalis, Cryptococcus neoformans).
(§3) The antibacterial activity of peptide analogs was tested against different bacterial strains, all purified cyclotides underwent antibacterial testing against Gram-positive bacterium Staphylococcus aureus (BNCC 186335), Bacillus subtilis (BNCC 109047), and Staphylococcus aureus (MRSA, BNCC 330041), Gram-negative bacteria, including Acinetobacter baumannii (BNCC 337173), Pseudomonas aeruginosa (BNCC 125486), and […]. Fungi included Candida parapsilosis (BNCC 336515) and Candida tropicalis (BNCC 340288). All the above strains are from the Henan Provincial Engineering Research Center of Industrial Microorganisms (Henan, China). Escherichia coli (ATCC 25922) and Klebsiella pneumoniae (CMCC(B) 46117) were sourced from Guangzhou HuanKai Microbial Technology Co., Ltd. (Guangzhou, China). The peptides’ MIC was determined using the Clinical and Laboratory Standards Institute broth dilution procedure with slight modifications.
(§4) Colonies of these bacterial strains were grown in respective agar media, then inoculated in Mueller Hinton (MH) broth and incubated at 37 °C overnight. The peptide solutions were first diluted 1 in 100 (from the stock solution at 20 mM) and then further two-fold dilution in MH broth in a sterile 96-well plate was performed, resulting in 100 µL of broth containing increasing concentrations. Bacteria in their exponential growth phase were diluted in MH broth, and 100 µL of this suspension was added in each well. […] Then, these plates were incubated at 37 °C for 20–22 h.
(§5) Each test was performed at least three times. MIC (minimum inhibitory concentration) values were determined as the concentrations of peptides that caused >99% inhibition of bacterial growth.

[3] = test system: Bacillus subtilis (BNCC 109047); format: cell-based
Procedure: as §2, §3, §4, §5

[4] = test system: Escherichia coli (ATCC 25922); format: cell-based
Procedure: as §2, §3, §4, §5

[5] = test system: Klebsiella pneumoniae (CMCC(B) 46117); format: cell-based
Procedure: as §2, §3, §4, §5

[6] = test system: Pseudomonas aeruginosa (BNCC 125486); format: cell-based
Procedure: as §2, §3, §4, §5

[7] = test system: Staphylococcus aureus (BNCC 186335); format: cell-based
Procedure: as §2, §3, §4, §5

[8] = test system: Staphylococcus aureus (MRSA, BNCC 330041); format: cell-based
Procedure: as §2, §3, §4, §5

[9] = test system: Cryptococcus neoformans (BNCC 225501); format: cell-based; conditions: BNCC 225501, 48 h
Procedure: as §2, §3, §5

[10] = test system: Candida tropicalis (BNCC 340288); format: cell-based; conditions: BNCC 340288, 24 h
Procedure: as §2, §3
Candida tropicalis was cultured on Sabourad Dextrose Agar (SDA). A single colony was inoculated in YM broth medium and grown overnight at 37 °C while shaking. Peptides were diluted in SDB media by two-fold dilution, resulting in 100 µL of medium containing increasing concentrations. The overnight culture (turbidity at OD600 = 1) was 1000× diluted in SDB. Then 100 µL of this suspension was added to each well, resulting in a final 200 µL suspension containing 2–4 × 10^5 CFU/mL. The plate was incubated at 37 °C for 24 h.
as §5

[11] = test system: red blood cells (RBCs); format: cell-based
Procedure: as §1
Figure S4. SEM images of RBCs treated with Cy-f1, Cy-f2, and Cy-f4. (A) SEM images of RBCs
treated with Cy-f1. (B) SEM images of RBCs treated with Cy-f2. (C) SEM images of RBCs treated […]

[12] = test system: Candida tropicalis; assay: Scanning electron microscopy of treated cells; format: cell-based; conditions: 4 MIC (32 μM for Cy-f2, 128 μM for Cy-f4), 1 h, 30 °C, 5000× magnification; clotrimazole as positive control
Procedure: (§6) To investigate the morphological effects of the cyclic peptides Cy-f2 and Cy-f4 on Klebsiella pneumoniae and Candida tropicalis, scanning electron microscopy (SEM) was performed (Figure 7). […] Untreated cells served as controls. Samples were fixed, dehydrated, and coated with gold for SEM imaging at 5000× magnification. Effects on Klebsiella pneumoniae (Panel A). […] The bactericidal efficacy of Cy-f2 and Cy-f4 against Klebsiella pneumoniae was verified through comparative evaluation of the treatment group and the positive control group. Effects on Candida tropicalis (Panel B) untreated C. tropicalis cells in the control group appeared as smooth, spherical to oval-shaped yeast cells with intact cell walls.
(§7) According to the method of He with adjustments, bacteria were grown to the logarithmic phase and then washed and resuspended in sterile PBS to an OD600 of 0.4. They were incubated with an equal volume of AMPs at 4× MIC for 1 h. After incubation, the bacterial pellets were washed three times with PBS and centrifuged at 3500 rpm for 4 min. The pellets were then fixed overnight in 2.5% (w/v) glutaraldehyde. The bacterial samples were dehydrated using a series of ethanol solutions with increasing concentrations (30%, 50%, 70%, 90%, and 100%). After dehydration, the samples were dried and sputter-coated with gold. Bacterial fragmentation was observed using scanning electron microscopy (HITACHI SU5000, Tokyo, Japan). Untreated bacterial suspensions served as the negative control.

[13] = test system: Klebsiella pneumoniae; assay: Time-dependent growth kinetics (time-kill); format: cell-based; conditions: 37 °C
Procedure: Bacterial viability, expressed as logarithmic colony-forming units per milliliter (Lg CFU/mL), was monitored over 240 min at 37 °C. Results are presented in Figure 6, X as the mean Lg CFU/mL ± standard deviation (SD) from three independent experiments. […] At 2× MIC, a more pronounced effect was observed, with the Lg CFU/mL decreasing to 4.0, a 3.9 Lg CFU/mL reduction. […] This rapid killing profile supports Cy-f2’s potential as an effective antimicrobial peptide.
Klebsiella pneumoniae was cultured in fresh LB nutrient broth at 37 °C following the protocol described by Huang et al., with modifications. Upon reaching the logarithmic growth phase, the bacterial suspension was adjusted to approximately 10^6 CFU/mL and subsequently treated with cyclized f2 at concentrations corresponding to 1×, 2×, and 4× the minimum inhibitory concentration (MIC). Aliquots were collected at 1, 2, 3, and 4 h post-treatment, serially diluted, and plated onto solid agar medium for 24 h incubation. Colony-forming units (CFUs) were enumerated to assess bacterial viability. All experiments were performed in triplicate. Time-dependent growth kinetics were analyzed by plotting bacterial survival (log10 CFU/mL) against time (h) using GraphPad Prism9.5, enabling statistical evaluation of the bactericidal and bacteriostatic effects of the cyclic hexapeptide.

[14] = test system: Klebsiella pneumoniae; assay: Scanning electron microscopy of treated cells; format: cell-based; conditions: 4 MIC (64 μM for Cy-f2, 128 μM for Cy-f4), 1 h, 37 °C, 5000× magnification; cefoperazone sodium as positive control
Procedure: as §6, §7

Compound | Hemolysis rate (positive control) [1] [%] | MIC against A. baumannii [2] [µM] | MIC against B. subtilis [3] [µM] | MIC against E. coli [4] [µM] | MIC against K. pneumoniae [5] [µM] | MIC against P. aeruginosa [6] [µM] | MIC against S. aureus [7] [µM] | MIC against MRSA [8] [µM] | MIC against C. neoformans [9] [µM] | MIC against C. tropicalis [10] [µM] | Morphology of red blood cells by SEM [11] | Cell morphology of C. tropicalis by SEM [12] | Reduction of bacterial viability after 240 min ([13]; 1× MIC (16 μM)) [Lg CFU/mL] | Bacterial viability after 240 min ([13]; 1× MIC (16 μM), start 6.55 Lg CFU/mL, mean of three independent experiments) [Lg CFU/mL] | Reduction of bacterial viability after 240 min ([13]; 2× MIC (32 μM)) [Lg CFU/mL] | Bacterial viability after 240 min ([13]; 2× MIC (32 μM), mean of three independent experiments) [Lg CFU/mL] | Bacterial viability within 240 min ([13]; 4× MIC (64 μM), mean of three independent experiments) | Cell morphology of K. pneumoniae by SEM [14]
Triton X-100 | 100 | – | – | – | – | – | – | – | – | – | – | – | – | – | – | – | – | –
CC[C@H](C)[C@@H]1NC(=O)[C@H](CCCCN)NC(=O)[C@H](CC(C)C)NC(=O)[C@H](CC(C)C)NC(=O)[C@H](CS)NC(=O)[C@H](Cc2ccccc2)NC1=O [Cy-f1] (cyclo(CLLKIF)) | – | 32 (≈ 23 µg/mL) | 4 (≈ 2.87 µg/mL) | 64 (≈ 46 µg/mL) | 64 (≈ 46 µg/mL) | 128 (≈ 91.9 µg/mL) | 8 (≈ 5.74 µg/mL) | 16 (≈ 11.5 µg/mL) | 16 (≈ 11.5 µg/mL) | 64 (≈ 46 µg/mL) | maintained well-preserved cell morphology | – | – | – | – | – | – | –
Clc1ccccc1C(c1ccccc1)(c1ccccc1)n1ccnc1 [clotrimazole, reference compound] | – | – | – | – | – | – | – | – | – | – | – | fragmentation and shrinkage | – | – | – | – | – | –
CC[C@H](C)[C@@H]1NC(=O)[C@H](CCCCN)NC(=O)[C@H](CC(C)C)NC(=O)[C@H](CCCNC(=N)N)NC(=O)[C@H](CS)NC(=O)[C@H](Cc2ccccc2)NC1=O [Cy-f2] (cyclo(CRLKIF)) | – | – | 32 (≈ 24.4 µg/mL) | 16 (≈ 12.2 µg/mL) | 16 (≈ 12.2 µg/mL) | 16 (≈ 12.2 µg/mL) | 8 (≈ 6.09 µg/mL) | 32 (≈ 24.4 µg/mL) | 8 (≈ 6.09 µg/mL) | 16 (≈ 12.2 µg/mL) | maintained well-preserved cell morphology | surface irregularities, cell wall deformation, and some degree of cell collapse | 2.4 | 5.60 | 3.9 | 4.0 | below 1.0 Lg CFU/mL | surface roughening, cell shrinkage, and partial membrane disruption
CCN1CCN(C(=O)N[C@@H](C(=O)N[C@@H]2C(=O)N3C(C(=O)O)=C(CSc4nnnn4C)CS[C@H]23)c2ccc(O)cc2)C(=O)C1=O [cefoperazone sodium, reference compound] | – | – | – | – | – | – | – | – | – | – | – | – | – | – | – | – | – | surface roughening, cell shrinkage, and partial membrane disruption
CC(C)C[C@@H]1NC(=O)[C@H](CCCCN)NC(=O)[C@H](CS)NC(=O)[C@H](Cc2ccccc2)NC(=O)[C@H](Cc2c[nH]c3ccccc23)NC(=O)[C@H](CCCNC(=N)N)NC1=O [Cy-f4] (cyclo(CKLRWF)) | – | 64 (≈ 53.4 µg/mL) | – | – | 32 (≈ 26.7 µg/mL) | 128 (≈ 107 µg/mL) | 16 (≈ 13.3 µg/mL) | 32 (≈ 26.7 µg/mL) | 32 (≈ 26.7 µg/mL) | 64 (≈ 53.4 µg/mL) | maintained well-preserved cell morphology | mild surface roughening and slight deformation but retaining overall structural integrity | – | – | – | – | – | extensive membrane rupture, cell deformation, and leakage of intracellular contents
